Laboratory results from ChEMBL document CHEMBL3351890, “Azapropellanes with anti-influenza a virus activity” (ACS Med Chem Lett, 2014).

What was measured:
[1] = Antiviral activity against Influenza A virus A/HK/7/87 (H3N2) infected in MDCK cells assessed as cell viability by MTS assay; type: functional, cell-based, Influenza A virus (A/Hong Kong/7/1987(H3N2))
[2] = Cytotoxicity against MDCK cells assessed as cell viability after 72 hrs by MTS assay; type: cell-based, Canis lupus familiaris; conditions: dog
Influenza A virus [3] = experiment: Antiviral activity against Influenza A virus A/PR/8/34 (H1N1) infected in MDCK cells assessed as inhibition of virus-induced cytopathic effect; type: functional, organism-based; conditions: A/Puerto Rico/8/1934(H1N1)
[4] = Antiviral activity against Influenza A virus A/HK/7/87 (H3N2) infected in MDCK cells assessed as inhibition of virus-induced cytopathic effect; type: functional, cell-based, Influenza A virus (A/Hong Kong/7/1987(H3N2))
[5] = Cytotoxicity against MDCK cells assessed as cell morphology by microscopical examination; type: cell-based, Canis lupus familiaris; conditions: dog
Influenza A virus [6] = experiment: Antiviral activity against Influenza A virus A/PR/8/34 (H1N1) infected in MDCK cells assessed as cell viability by MTS assay; type: functional, organism-based; conditions: A/Puerto Rico/8/1934(H1N1)
[7] = biological target: Matrix protein 2 (Influenza A virus) (UniProt P06821); experiment: Inhibition of influenza A virus wild type M2 proton channel expressed in Xenopus oocytes at 100 uM for 2 mins by two-electrode voltage clamp analysis; type: cell-based
Sequence of Matrix protein 2 (Influenza A virus) (P06821 whole entry): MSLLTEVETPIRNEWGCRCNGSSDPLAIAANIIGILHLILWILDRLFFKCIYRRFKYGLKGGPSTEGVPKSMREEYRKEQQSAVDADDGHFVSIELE

For N=C(N)N1CC23CCCC2(CCC3)C1 (stereo not given), the EC50 [1] was > 100 µM, the CC50 at 72 h [2] was 100 µM and the EC50 (Influenza A virus [3]) was > 100 µM. The EC50 [4] was > 100 µM, the MCC [5] was 54 µM and the EC50 (Influenza A virus [6]) was > 100 µM.
In the case of C1CC[C@]23CCCC[C@@]2(C1)CNC3, the EC50 [1] is reported as > 100 µM, the CC50 at 72 h [2] is reported as > 100 µM and the EC50 (Influenza A virus [3]) is reported as 5.9 µM. For the same molecule, the EC50 [4] was > 100 µM, the MCC [5] was > 100 µM and the EC50 (Influenza A virus [6]) was 13 µM.
With C1=CC[C@]23CCC[C@@]2(C1)CNC3 the EC50 [1] was > 100 µM, the CC50 at 72 h [2] was > 100 µM and the EC50 (Influenza A virus [3]) was 70 µM. For the same molecule, the EC50 [4] was > 100 µM, the MCC [5] was > 100 µM and the EC50 (Influenza A virus [6]) was 56 µM.
For CC1CC23CC(C)CC2(C1)CN(C(=N)N)C3 (stereo not given), the EC50 [1] was > 100 µM, the CC50 at 72 h [2] was > 20 µM and the EC50 (Influenza A virus [3]) was 2 µM. The EC50 [4] was > 100 µM, the MCC [5] was > 100 µM and the inhibition [7] was 8.8%. The EC50 (Influenza A virus [6]) was 1.6 µM.
With C=C1CC23CC=CCC2(CNC3)C1 (stereo not given) the EC50 [1] was > 100 µM, the CC50 at 72 h [2] was > 100 µM and the EC50 (Influenza A virus [3]) was 45 µM. For the same molecule, the EC50 [4] was > 100 µM, the MCC [5] was > 100 µM and the inhibition [7] was 14.9%. The EC50 (Influenza A virus [6]) was 43 µM.
For CC1=C(C)C[C@]23CNC[C@@]2(C1)CC(C)=C(C)C3, the EC50 [1] was > 100 µM, the CC50 at 72 h [2] was > 100 µM and the EC50 (Influenza A virus [3]) was 7 µM. For the same molecule, the EC50 [4] was > 100 µM, the MCC [5] was > 100 µM and the EC50 (Influenza A virus [6]) was 5.6 µM.
For CC1CC23CNCC2(C1)CC(C)C3 (stereo not given), the EC50 [1] was > 100 µM, the CC50 at 72 h [2] was > 100 µM and the EC50 (Influenza A virus [3]) was 24 µM. For the same molecule, the EC50 [4] was > 100 µM, the MCC [5] was > 100 µM and the inhibition [7] was 58.7%. It also gave an EC50 (Influenza A virus [6]) of 20 µM.
In the case of C=C1CC23CCCC2(CNC3)C1 (stereo not given), the EC50 [1] is reported as > 100 µM, the CC50 at 72 h [2] is reported as > 100 µM and the EC50 (Influenza A virus [3]) is reported as > 100 µM. For the same molecule, the EC50 [4] was > 100 µM, the MCC [5] was > 100 µM and the inhibition [7] was 29.9%. The EC50 (Influenza A virus [6]) was > 100 µM.
With C1=CC[C@]23CC=CC[C@@]2(C1)CNC3 the EC50 [1] was > 100 µM, the CC50 at 72 h [2] was > 100 µM and the EC50 (Influenza A virus [3]) was 38 µM. For the same molecule, the EC50 [4] was > 100 µM, the MCC [5] was > 100 µM and the EC50 (Influenza A virus [6]) was 30 µM.
In the case of C1CC23CCCC2(C1)CNC3 (stereo not given), the EC50 [1] is reported as > 100 µM, the CC50 at 72 h [2] is reported as > 100 µM and the EC50 (Influenza A virus [3]) is reported as > 100 µM. The EC50 [4] was > 100 µM, the MCC [5] was > 100 µM and the inhibition [7] was 47.1%. For the same molecule, the EC50 (Influenza A virus [6]) was > 100 µM.
With C=C1CC23CNCC2(C1)CC(=C)C3 (stereo not given) the EC50 [1] was > 100 µM, the CC50 at 72 h [2] was > 100 µM and the EC50 (Influenza A virus [3]) was < 0.8 µM. For the same molecule, the EC50 [4] was > 100 µM, the MCC [5] was > 100 µM and the inhibition [7] was 29.3%. For the same molecule, the EC50 (Influenza A virus [6]) was < 0.8 µM.
With C1=CC2C3C4C5C=CC4C24CNCC54C13 the CC50 at 72 h [2] was > 100 µM, the EC50 (Influenza A virus [3]) was 16 µM and the EC50 [4] was 14 µM. For the same molecule, the MCC [5] was > 100 µM.
For C1=CC[C@]23CCCC[C@@]2(C1)CNC3, the EC50 [1] was > 100 µM, the CC50 at 72 h [2] was > 100 µM and the EC50 (Influenza A virus [3]) was 30 µM. The EC50 [4] was > 100 µM, the MCC [5] was > 100 µM and the inhibition [7] was 19.1%. It also gave an EC50 (Influenza A virus [6]) of 14 µM.
In the case of C=C1CC23CC(=C)CC2(C1)CN(C(=N)N)C3 (stereo not given), the EC50 [1] is reported as > 100 µM, the CC50 at 72 h [2] is reported as 20 µM and the EC50 (Influenza A virus [3]) is reported as > 100 µM. For the same molecule, the EC50 [4] was > 100 µM, the MCC [5] was 16 µM and the EC50 (Influenza A virus [6]) was > 100 µM.
In the case of N=C(N)N1C[C@@]23CC=CC[C@@]2(CCC3)C1, the EC50 [1] is reported as > 100 µM, the CC50 at 72 h [2] is reported as > 100 µM and the EC50 (Influenza A virus [3]) is reported as > 100 µM. For the same molecule, the EC50 [4] was > 100 µM, the MCC [5] was > 100 µM and the EC50 (Influenza A virus [6]) was > 100 µM.
